According to patent publication US10293016B2, “Use of instant asparagus powder in food, medicine and health food” (Q[…] DEVELOPMENT CO., LTD, priority 2013, dated 2019):

Experiments:
Mouse [1] = assay: Elevated plus maze model (EPM) test; assay type: in vivo
Description: The elevated plus maze has been widely used in anxiety experiments of the small rodent. This system is used to detect the situation of decreasing animals' inherent aversion to a high position and a open field, after using the anxiety drug. The rodent (e.g. rat, mouse), which have the exploratory behavior, will actively explore the open arms after placed in the elevated plus maze, but fear the high and open environment in the open arms. The antianxiety drug increases the open-arm exploratory activities, while the anxiety drug has the opposite effect.
The elevated plus maze has a pair of open arms and a pair of closed arms. The animal, after a period of time of adaptation, is rapidly placed in the central platform of the EPM in such a way that its head directly faces one of the open arms. A tracking camera is used to record following: (1) times of entering the open arm (open arm entry, OE) within 5 minutes, wherein it is considered as one time of entering an open arm when all the four paws of the rat have entered any open arm, and meanwhile this entry activity is finished when one paw completely withdraws from this arm; (2) duration of staying in an open arm (open arm time, OT) within 5 minutes, wherein the unit of the duration of staying in an open arm is “second”; (3) times of entering a closed arm (close arm entry, CE) within 5 minutes, wherein it is considered as one time of entering a closed arm when all the four paws of the rat have entered any closed arm; (4) duration of staying in a closed arm (close arm entry, CT) within 5 minutes, wherein the unit of duration of staying in a closed arm is “second”. The following is calculated from (1)-(4), respectively: […]
(1) the total number of the times of the open arm entry and the closed arm entry (OE+CE): representing the motion vitality of the rat;
(2) the ratio of the times of the open arm entry (OE %); the times of the open arm entry/(OE+CE)×100%;
(3) the ratio of the duration of staying in the open arms (OT %), i.e. the duration of staying in the open arms/(OT+CT)×100%. Each rat is tested for 5 minutes. OE % and OT % represent the indices of the antianxiety effect.

Mouse [2] = assay: Chronic emotional stress-response model (CSM) test, behaviors; assay type: in vivo, rat; settings: CSM empty bottle stimulation, dosage 3 mg/Kg, n=10
[3] = system: Neurotransmitter in Hippocampus of Rat; assay: CSM test, level of neurotransmitter in hippocampus; assay type: in vivo; settings: dosage 3 mg/Kg
Description: (§1) The chronic emotional stress-response model takes as an emotional stress-response resource an uncertain stimulation of drinking by an empty bottle, so as to investigate the influence which the emotional stress of 14 days exerts on the behaviors, and neuroendocrine and immune functions of the rats.
After adaptation for one week, the rats were randomly grouped. Except the normal group, the model groups were fed in individual cages and subjected to the uncertain stimulation of drinking by an empty bottle to establish the anxiety stress models. The specific method is as follows: the training of timely feeding water lasts for 7 days, that is, water was being given to the animals for 10 minutes every day at 9:00-9:10 and 17:00-17:10, and at other times, the water bottles were taken away, without water given. After the period of timely feeding water was ended, the stress-response experiment started, wherein the uncertain stimulation of the empty bottle was given once or twice a day in the above two periods of time for two weeks. The normal group was not subjected to any treatment, and was fed with water and food freely. The behaviors observed included attacking (biting or attacking the empty bottle and the cage), exploratory (moving around and visiting the place where the water bottle was located), and grooming behaviors (combing fur and washing face). The specific method was: the 10 minutes of the empty bottle stimulation was equally divided into 10 periods of time, the above-mentioned three types of behaviors of each rat were recorded in each period of time, wherein it was marked as “1” if the behavior appears, otherwise it was marked as “0”. The total score obtained in the observation within 10 minutes was between 0 and 10. […] The average score of the first 3 days and the last 3 days of the 14 observation days was used for statistical analysis. […]
(§2) The following endocrine levels were detected in the test: (1) plasma cortisol concentration, (2) catecholamine level, (3) 5-hydroxytryptamine level.

[4] = system: Neurotransmitter in Serum of Rat; assay: CSM test, level of neurotransmitter in serum; assay type: in vivo; settings: dosage 3 mg/Kg
Description: as §1
After adaptation for one week, the rats were randomly grouped. Except the normal group, the model groups were fed in individual cages and subjected to the uncertain stimulation of drinking by an empty bottle to establish the anxiety stress models. The specific method is as follows: the training of timely feeding water lasts for 7 days, that is, water was being given to the animals for 10 minutes every day at 9:00-9:10 and 17:00-17:10, and at other times, the water bottles were taken away, without water given. After the period of timely feeding water was ended, the stress-response experiment started, wherein the uncertain stimulation of the empty bottle was given once or twice a day in the above two periods of time for two weeks. The normal group was not subjected to any treatment, and was fed with water and food freely. The behaviors observed included attacking (biting or attacking the empty bottle and the cage), exploratory (moving around and visiting the place where the water bottle was located), and grooming behaviors (combing fur and washing face). The specific method was: the 10 minutes of the empty bottle stimulation was equally divided into 10 periods of time, the above-mentioned three types of behaviors of each rat were recorded in each period of time, wherein it was marked as “1” if the behavior appears, otherwise it was marked as “0”. The total score obtained in the observation within 10 minutes was between 0 and 10. […] The average score of the first 3 days and the last 3 days of the 14 observation days was used for statistical analysis. The samples were gathered when the experiment was ended to detect the neuroendocrine and immune indices.
The normal control group was not subjected to any treatment; all the other groups were subjected to the stimulation.
as §2

Mouse [5] = assay: Analysis of times of locomotor activities; assay type: in vivo
Description: The condition of the locomotor activity of an animal reflects the functional status of its central nervous system. The central stimulant drug can prominently increase the locomotor activity but decrease the exploratory behavior, and a certain dosage of antipsychotic drug can decrease the exploratory behavior without influencing the locomotor activity. A YLS-1A multi-functional mouse locomotor activity recorder is used to record the situation of locomotor activity of the mouse at different points of time after drug administration.

## CN1C(=O)CN=C(c2ccccc2)c2cc(Cl)ccc21 [DZP, diazepam]
Mouse [1]; EPM 5 minutes, dosage 3 mg/Kg, n=10, mean±SD, negative control 10.8 ± 3.9
  OE + CE (times): 12.9 ± 5.2 times
Mouse [1]; EPM 5 minutes, dosage 3 mg/Kg, n=10, negative control 20.1 ± 4.5, p<0.05
  OT (%): 42.3 ± 5.7 %
Mouse [1]; EPM 5 minutes, dosage 3 mg/Kg, n=10, negative control 22.8 ± 5.9, p<0.05
  OE (%): 40.9 ± 5.2 %
Mouse [1]; EPM, with the dosage of administration
  values of OT % and OE % and total number of the times of entering arms (in words): can increase the values of OT % and OE % without increasing the total number of the times of entering arms
Mouse [2]; negative control 2.38 ± 1.16
  Grooming Behavior (%): 1.78 ± 1.06%
Mouse [2]; negative control 2.44 ± 0.88
  Exploratory Behavior (%): 1.09 ± 0.52%
Mouse [2]; negative control 2.56 ± 2.09
  Attacking Behavior (%): 0.69 ± 0.52%
[3]; n=10, negative control 0.104 ± 0.048
  NE (norepinephrine): 0.080 ± 0.053 pg/mL
[3]; n=10, negative control 9.542 ± .93
  Dopamine: 11.38 ± 4.33 ng/mL
[3]; n=10, negative control 40.97 ± 13.25
  NA: 37.22 ± 10.05 pg/mL
[4]; n=10, negative control 0.86 ± 0.15, p<0.05
  5-HT: 1.12 ± 0.13 ng/mL
[4]; n=10, negative control 1.15 ± 0.16
  NE: 1.00 ± 0.13 pg/mL
[4]; n=10, negative control 5.45 ± 0.76
  DA: 6.00 ± 1.70 ng/mL
[4]; n=10, negative control 15.08 ± 0.71
  NA: 14.67 ± 0.36 pg/mL
[4]; n=10, negative control 49.94 ± 7.26, p<0.05
  COR (cortisol): 28.94 ± 6.36 ng/mL
Mouse [5]; 15-20 min after administration, dosage 3 mg/Kg, n=10, negative control 86 ± 35
  Times of Locomotor Activity 15-20 min (times): 48 ± 46 times
Mouse [5]; 30-35 min after administration, dosage 3 mg/Kg, n=10, negative control 64 ± 15, p<0.05
  Times of Locomotor Activity 30-35 min (times): 32 ± 16 times
Mouse [5]; 60-65 min after administration, dosage 3 mg/Kg, n=10, negative control 53 ± 9, p<0.05
  Times of Locomotor Activity 60-65 min (times): 24 ± 6 times
Mouse [5]; with the dosage of administration
  times of locomotor activities of the mouse (in words): prominently reduce the times of locomotor activities of the mouse at the two periods of time, namely, 30 minutes and 60 minutes
